Holding throughout (assay type): biochemical
Experiment [1] addresses T1, Human factor Xa (Homo sapiens, UniProt P00742).
T1 construct: Human factor Xa (Enzyme Research Lab., purchased from Haemochrom Diagnostica GmbH, Essen); purchased Enzyme Research Lab; (via Haemochrom Diagnostica GmbH, Essen)
Kind of experiment: Enzyme kinetic determination of Ki with chromogenic substrate, factor Xa. Particulars: Tris buffer pH 8.0, 25° C., Pefachrome Xa, read-out: Ki (nM) FXa. The method, then:
(§1) The inhibitory effect of the inhibitors for factor Xa, thrombin and plasmin were estimated using specific synthetic chromogenic substrates. […] The inhibitor was dissolved in Tris buffer, the substrates (all Pentapharm Ltd., Basel, CH) in water. […] Three different substrate concentrations and five different inhibitor concentrations were measured in each case.
(§2) The following enzymes and substrates were used for the measurements:
Human factor Xa (Enzyme Research Lab., purchased from Haemochrom Diagnostica GmbH, Essen)
Enzyme content: 0.67 μg/ml
Substrate: CH3OCO-D-Cha-Gly-Arg-pNA (Pefachrome Xa),
concentration: 4, 2 and 1 mM; reaction time: 4 min

Experiment [2] deals with T2, Human plasmin (Homo sapiens, UniProt P00747).
T2 construct: Human plasmin (CHROMOGENIX, Milano, Italy); purchased CHROMOGENIX, Milano, Italy
T2 sequence (P00747 581-810 limits assumed): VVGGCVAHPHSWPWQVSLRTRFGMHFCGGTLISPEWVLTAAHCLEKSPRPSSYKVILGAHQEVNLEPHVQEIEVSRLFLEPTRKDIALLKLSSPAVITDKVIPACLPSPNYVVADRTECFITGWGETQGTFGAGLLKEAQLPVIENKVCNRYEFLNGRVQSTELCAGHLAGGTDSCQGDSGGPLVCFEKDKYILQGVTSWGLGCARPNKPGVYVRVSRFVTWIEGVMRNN
T2 sequence (P00747 97-580 limits assumed): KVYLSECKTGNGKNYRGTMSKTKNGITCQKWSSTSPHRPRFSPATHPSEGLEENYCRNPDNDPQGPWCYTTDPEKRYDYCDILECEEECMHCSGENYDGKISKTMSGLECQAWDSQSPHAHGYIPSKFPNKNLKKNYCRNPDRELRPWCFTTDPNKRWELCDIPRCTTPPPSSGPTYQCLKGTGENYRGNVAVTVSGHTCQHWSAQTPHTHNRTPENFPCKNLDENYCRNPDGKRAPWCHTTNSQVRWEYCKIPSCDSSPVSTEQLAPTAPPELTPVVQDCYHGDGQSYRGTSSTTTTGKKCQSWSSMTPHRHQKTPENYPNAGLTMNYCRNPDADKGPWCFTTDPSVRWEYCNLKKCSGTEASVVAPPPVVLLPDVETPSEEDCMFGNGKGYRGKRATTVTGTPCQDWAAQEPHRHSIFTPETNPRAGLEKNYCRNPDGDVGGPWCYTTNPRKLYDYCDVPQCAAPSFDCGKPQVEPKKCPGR
Kind of experiment: Enzyme kinetic determination of Ki with chromogenic substrate, plasmin. The note with it: Tris buffer pH 8.0, 25° C., Chromozym PL. The procedure: as §1, §2
Human plasmin (CHROMOGENIX, Milano, Italy)
Substrate: Tos-Gly-Pro-Lys-pNA (Chromozym PL),
concentration: 2, 1 and 0.67 mM; reaction time: 3 min

The target of experiment [3] is T3, Thrombin (bovine) (Bos taurus, UniProt P00735).
T3 construct: Thrombin (bovine)
Kind of experiment: Enzyme kinetic determination of Ki with chromogenic substrate, thrombin. The method, then: as §1, §2
Enzyme content: 2.5 IE/ml (in 0.9% NaCl with 1% HSA)
Substrate: CH3SO2-D-HHT-Gly-Arg-pNA (Pefachrome tPA),
concentration: 2, 1 and 0.5 mM; reaction time: 3 min

Setting [4] is: bovine thrombin, Tris buffer pH 8.0, 25° C., Pefachrome tPA, read-out: Ki (nM) Thrombin.

Each structure is given as a SMILES string. Read-outs that look alike come from different tables or passages of the source.

T1 sequence (P00742 235-488 limits assumed): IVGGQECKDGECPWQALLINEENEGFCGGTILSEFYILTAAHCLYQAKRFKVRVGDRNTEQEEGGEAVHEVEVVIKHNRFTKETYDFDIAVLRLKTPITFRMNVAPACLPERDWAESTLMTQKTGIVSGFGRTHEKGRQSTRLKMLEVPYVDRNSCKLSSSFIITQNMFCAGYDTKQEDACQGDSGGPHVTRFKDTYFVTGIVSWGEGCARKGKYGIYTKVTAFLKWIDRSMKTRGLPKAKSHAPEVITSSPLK
T1 sequence (P00742 41-179 limits assumed): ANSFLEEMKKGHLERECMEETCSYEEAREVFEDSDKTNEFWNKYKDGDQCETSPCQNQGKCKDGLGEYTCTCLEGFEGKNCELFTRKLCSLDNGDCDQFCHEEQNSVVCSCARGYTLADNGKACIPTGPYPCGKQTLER

By Ki is commonly meant a measure of affinity in units of concentration, obtained from inhibition or displacement. As for `COC(=O)CC[C@H](NC(=O)[C@@H](CCc1cccc[n+]1[O-])NS(=O)(=O)Cc1ccccc1)C(=O)NCc1cc(Cl)ccc1CN` [Inhibitor 11], the Ki in experiment [1] worked out at 0.24 nM; in experiment [2] it was 78000 nM; in experiment [3] (setting [4]), 180 nM.

As to `COC(=O)Cc1ccc(CS(=O)(=O)NC(CCc2cccc[n+]2[O-])C(=O)NCC(=O)NCc2cc(Cl)ccc2CN)cc1` (stereo not drawn) [Inhibitor 13], the Ki was determined as 200000 nM in experiment [2] and 1010 nM in experiment [3].

On to `COC(=O)Cc1ccc(CS(=O)(=O)NC(CCc2ccccn2)C(=O)N[C@@H](CO)C(=O)NCc2cc(Cl)ccc2CN)cc1` (stereo partly drawn) [Inhibitor 18], for which the Ki in experiment [1] was 0.67 nM; in experiment [2], over 1e+06 nM; in experiment [3] (setting [4]), 430 nM.

As to `NCc1ccc(Cl)cc1CNC(=O)[C@@H]1CCCN1C(=O)[C@@H](CCc1cccc[n+]1[O-])NS(=O)(=O)Cc1ccccc1` [Inhibitor 7], the results for the Ki in experiment [2] and in experiment [3] were 8470 nM and 0.56 nM, respectively.

`NCc1ccc(Cl)cc1CNC(=O)[C@@H]1CCCN1C(=O)C(CCc1cccc[n+]1[O-])NC(=O)C(=O)O` (stereo partly drawn) [Inhibitor 31]: the Ki in experiment [1] is 0.88 nM; in experiment [2], 80000 nM; in experiment [3] (setting [4]), 43 nM.

With `NCc1ccc(Cl)cc1CNC(=O)[C@H](CO)NC(=O)[C@@H](CCc1cccc[n+]1[O-])NS(=O)(=O)Cc1ccc(CC(=O)O)cc1` [Inhibitor 17], the Ki in experiment [1] was 0.18 nM; in experiment [2] it was over 1e+06 nM; in experiment [3] (setting [4]), 540 nM.

Take `NCc1ccc(Cl)cc1CNC(=O)[C@@H]1CCCN1C(=O)[C@@H](CCc1cccc[n+]1[O-])NCC(=O)OC1CCCCC1` [Inhibitor 38]: the Ki in experiment [1] came to 1.01 nM.

In the case of `NCc1ccc(Cl)cc1CNC(=O)[C@H](CN)NC(=O)[C@@H](CCc1cccc[n+]1[O-])NS(=O)(=O)Cc1ccccc1` [Inhibitor 12], the Ki came to 0.54 nM in experiment [1], 2300 nM in experiment [2] and 750 nM in experiment [3] (setting [4]).

For `NCc1ccc(Cl)cc1CNC(=O)CNC(=O)C(CCc1cccc[n+]1[O-])NS(=O)(=O)CC(=O)O` (stereo not drawn) [Inhibitor 29], the Ki in experiment [2] is over 1e+06 nM; in experiment [3] it was 8300 nM.

Consider `NCc1ccc(Cl)cc1CNC(=O)CNC(=O)[C@@H](CCc1cccc[n+]1[O-])NS(=O)(=O)Cc1ccccc1` [Inhibitor 1], for which the Ki in experiment [2] was 600000 nM; in experiment [3], 170 nM.

With `NCc1ccc(Cl)cc1CNC(=O)CNC(=O)[C@H](O)CCc1ccccc1` [Inhibitor 8], the Ki in experiment [1] turned out to be 2200 nM; in experiment [2], 540000 nM; in experiment [3] (setting [4]), 1600 nM.

Take `NCc1ccc(Cl)cc1CNC(=O)CNC(=O)C(CCc1cccc[n+]1[O-])NCC(=O)O` (stereo not drawn) [Inhibitor 9]: the results for the Ki in experiment [2] and in experiment [3] were over 1e+06 nM and 125000 nM, respectively.

As for `CC(C)OC(=O)CS(=O)(=O)NC(CCc1cccc[n+]1[O-])C(=O)NCC(=O)NCc1cc(Cl)ccc1CN` (stereo not drawn) [Inhibitor 28], the Ki came out at 7.6 nM in experiment [1], 305000 nM in experiment [2] and 1600 nM in experiment [3].

`NCc1ccc(Cl)cc1CNC(=O)CNC(=O)C(CCc1cccc[n+]1[O-])NC(=O)CC(=O)O` (stereo not drawn) [Inhibitor 32] came in with a Ki in experiment [3] of 140 nM.

For `COC(=O)c1ccc(CS(=O)(=O)NC(CCc2cccc[n+]2[O-])C(=O)NCC(=O)NCc2cc(Cl)ccc2CN)cc1` (stereo not drawn) [Inhibitor 20], the Ki is 0.3 nM in experiment [1], 140000 nM in experiment [2] and 360 nM in experiment [3] (setting [4]).

Consider `COC(=O)c1ccc(CS(=O)(=O)NC(CCc2cccc[n+]2[O-])C(=O)N[C@@H](CO)C(=O)NCc2cc(Cl)ccc2CN)cc1` (stereo partly drawn) [Inhibitor 24], for which the Ki in experiment [1] is 0.48 nM; in experiment [2], 160000 nM; in experiment [3] (setting [4]), 930 nM.

`COC(=O)c1ccc(CS(=O)(=O)NC(CCc2ccccn2)C(=O)NCC(=O)NCc2cc(Cl)ccc2CN)cc1` (stereo not drawn) [Inhibitor 22]: the Ki in experiment [1] was determined as 1.05 nM; in experiment [2], 98000 nM; in experiment [3] (setting [4]) it was 100 nM.

On to `NCc1ccc(Cl)cc1CNC(=O)[C@@H]1CCCN1C(=O)[C@@H](CCc1cccc[n+]1[O-])NS(=O)(=O)CC(=O)O` [Inhibitor 27], for which the Ki in experiment [2] was determined as 98000 nM; in experiment [3], 22 nM.

As for `CC(C)OC(=O)CS(=O)(=O)NC(CCc1ccccn1)C(=O)NCC(=O)NCc1cc(Cl)ccc1CN` (stereo not drawn) [Inhibitor 30], the Ki in experiment [1] was 2.1 nM; in experiment [2] it was 290000 nM; in experiment [3] (setting [4]) it was 66 nM.

`C[C@H](NC(=O)[C@@H](CCc1cccc[n+]1[O-])NS(=O)(=O)Cc1ccccc1)C(=O)NCc1cc(Cl)ccc1CN` [Inhibitor 10]: the Ki is 85000 nM in experiment [2] and 170 nM in experiment [3].

With `COC(=O)CC[C@H](NC(=O)C(CCc1cccc[n+]1[O-])NS(=O)(=O)Cc1ccccc1)C(=O)NCc1cc(Cl)ccc1CN` (stereo partly drawn) [Inhibitor 5], the values for the Ki in experiment [1], in experiment [2] and in experiment [3] (setting [4]) were 0.43 nM, 130000 nM and 350 nM, respectively.

For `NCc1ccc(Cl)cc1CNC(=O)[C@H](CO)NC(=O)[C@@H](CCc1ccccn1)NS(=O)(=O)Cc1ccc(CC(=O)O)cc1` [Inhibitor 19], the Ki came to 0.78 nM in experiment [1], 100000 nM in experiment [2] and 210 nM in experiment [3] (setting [4]).

Regarding `NCc1ccc(Cl)cc1CNC(=O)CNC(=O)C(CCc1ccccn1)NS(=O)(=O)Cc1ccc(C(=O)O)cc1` (stereo not drawn) [Inhibitor 23], the Ki in experiment [1] is 11 nM; in experiment [2], 140000 nM; in experiment [3] (setting [4]), 330 nM.

As for `NCc1ccc(Cl)cc1CNC(=O)CNC(=O)C(CCc1ccccn1)NS(=O)(=O)Cc1ccc(CC(=O)O)cc1` (stereo not drawn) [Inhibitor 15], the Ki in experiment [1] is 0.68 nM; in experiment [2] it was over 1e+06 nM; in experiment [3] (setting [4]), 140 nM.

Take `NCc1ccc(Cl)cc1CNC(=O)[C@@H]1CCCN1C(=O)[C@@H](CCc1cccc[n+]1[O-])NCC(=O)O` [Inhibitor 35]: the inhibitory constant (Ki) in experiment [1] stood at 0.4 nM; in experiment [2], 100000 nM; in experiment [3] it was 17.2 nM.

On to `NCc1ccc(Cl)cc1CNC(=O)CNC(=O)C(CCc1ccccn1)NS(=O)(=O)Cc1cccnc1` (stereo not drawn) [Inhibitor 26], for which the figures for the Ki in experiment [1], in experiment [2] and in experiment [3] (setting [4]) were 0.34 nM, 210000 nM and 140 nM, respectively.

For `CCOC(=O)CN[C@H](CCc1cccc[n+]1[O-])C(=O)N1CCC[C@H]1C(=O)NCc1cc(Cl)ccc1CN` [Inhibitor 33], the Ki amounted to 0.4 nM in experiment [1] and 240000 nM in experiment [2].

`CCOC(=O)CN[C@H](CCc1ccccn1)C(=O)N1CCC[C@H]1C(=O)NCc1cc(Cl)ccc1CN` [Inhibitor 34] had a Ki in experiment [3] of 3.8 nM.

As for `NCc1ccc(Cl)cc1CNC(=O)CNC(=O)C(CCc1cccc[n+]1[O-])NS(=O)(=O)Cc1ccc(CC(=O)O)cc1` (stereo not drawn) [Inhibitor 14], the Ki was over 1e+06 nM in experiment [2] and 930 nM in experiment [3].

In the case of `NCc1ccc(Cl)cc1CNC(=O)CNC(=O)C(CCc1cccc[n+]1[O-])NS(=O)(=O)Cc1ccc[n+]([O-])c1` (stereo not drawn) [Inhibitor 25], the results for the Ki in experiment [1], in experiment [2] and in experiment [3] (setting [4]) were 1.4 nM, over 1e+06 nM and 2500 nM, respectively.

On to `NCc1ccc(Cl)cc1CNC(=O)[C@H](CCC(=O)O)NC(=O)C(CCc1cccc[n+]1[O-])NS(=O)(=O)Cc1ccccc1` (stereo partly drawn) [Inhibitor 6], for which the Ki in experiment [2] stood at 400000 nM; in experiment [3], 20500 nM.

Consider `NCc1ccc(Cl)cc1CNC(=O)CNC(=O)C(CCc1cccc[n+]1[O-])NS(=O)(=O)Cc1ccc(C(=O)O)cc1` (stereo not drawn) [Inhibitor 21], for which the Ki in experiment [1] is 4.1 nM; in experiment [2], 130000 nM; in experiment [3] (setting [4]), 1300 nM.

In the case of `NCc1ccc(Cl)cc1CNC(=O)[C@H](CO)NC(=O)C(CCc1ccccn1)NS(=O)(=O)Cc1ccccc1` (stereo partly drawn) [Inhibitor 3], the inhibitory constant (Ki) stood at 350000 nM in experiment [2] and 260 nM in experiment [3].

For `CCCS(=O)(=O)NC(CCc1cccc[n+]1[O-])C(=O)NCC(=O)NCc1cc(Cl)ccc1CN` (stereo not drawn) [Inhibitor 4], the figures for the Ki in experiment [2] and in experiment [3] were 280000 nM and 2630 nM, respectively.

(Values after US8124587B2, “2-(aminomethyl)-5-chlorobenzylamide derivatives and their use as inhibitors of the clotting factor Xa” (The Medicines Company (Leipzig) GmbH, priority 2005, dated 2012).)
